pEC50: −log10 of the molar value. Where two headings read alike, the source gives them in different places.
Tests used:
[1] = test system: HIV-2 ROD; assay: microbe, parasite or virus in culture; format: cell-based
[2] = test system: HIV-1 IIIB; format: cell-based
[3] = in vitro; conditions: human, microsomes
[4] = test system: MT-4 cells
[5] = selectivity index, ratio CC50/EC50, HIV-2 ROD
[6] = selectivity index, ratio CC50/EC50, HIV-1 IIIB

Structure (SMILES)	SI HIV ROD [1, 5]	SI HIV ROD [1]	further results
COc1ccc(N(C)C(=O)[C@H](Cc2ccccc2)NC(=O)CN2CCN(CC(=O)N[C@@H](Cc3ccccc3)C(=O)N(C)c3ccccc3)CC2=O)cc1 [Q-c3, (S)–N-(4-methoxyphenyl)-N-methyl-2-(2-(4-(2-(((S)-1-(methyl(phenyl)amino)-1-oxo-3-phenylpropan-2-yl)amino)-2-oxoethyl)-2-oxopiperazin-1-yl)acetamido)-3-phenylpropanamid]	<1.00	–	SI HIV IIIB [2, 6]: <1.00
COc1ccc(N(C)C(=O)[C@H](Cc2ccccc2)NC(=O)CN2CCN(CC(=O)N[C@@H](Cc3cc(F)cc(F)c3)C(=O)N(C)c3ccc(OC)cc3)C(=O)C2)cc1 [Q-c5, (S)-3-(3,5-difluorophenyl)-N-(4-methoxyphenyl)-2-(2-(4-(2-(((S)-1-((4-methoxyphenyl)(methyl)amino)-1-oxo-3-phenylpropan-2-yl)amino)-2-oxoethyl)-2-oxopiperazin-1-yl)acetamido)-N-methyl-propanamide]	<1.00	–	–
COc1ccc(N(C)C(=O)[C@H](Cc2ccccc2)NC(=O)CN2CCN(CC(=O)N[C@@H](Cc3ccccc3)C(=O)N(C)c3ccc(OC)cc3)C(=O)C2)cc1 [Q-c1, (2S,2′S)-2,2'-((2,2'-(2-oxopiperazine-1,4-diyl)bis(acetyl))bis(azanediyl)) bis(N-(4-methoxyphenyl)-N-methyl-3-phenylpropanamide)]	–	<1.00	SI HIV IIIB [2]: ≤4.29
COc1ccc(N(C)C(=O)[C@H](Cc2ccccc2)NC(=O)CN2CC(=O)N(CC(=O)N[C@@H](Cc3ccccc3)C(=O)N(C)c3ccc(OC)cc3)CC2=O)cc1 [Q-a1, (2S,2′S)-2,2'-((2,2'-(2,5-dioxopiperazine-1,4-diyl)bis(acetyl))bis(azanediyl)) bis(N-(4-methoxyphenyl)-N-methyl-3-phenylpropanamide)]	–	<1.00	–
COc1ccc(N(C)C(=O)[C@H](Cc2cc(F)cc(F)c2)NC(=O)CN2CC(=O)N(CC(=O)N[C@@H](Cc3cc(F)cc(F)c3)C(=O)N(C)c3ccc(OC)cc3)CC2=O)cc1 [Q-a2, (2S,2S)-22′-((2,2'-(2,5'-dioxopiperazine-1,4-diyl)bis(acetyl))bis(azanediyl)) bis(3-(3,5-di-N-difluorophenyl)-N-(4-methoxyphenyl)-N-methylpropanamide)]	–	–	CLint scaled at 3 h, 100 µM [3]: 760 mL/min/kg
COc1ccc(N(C)C(=O)[C@H](Cc2cc(F)cc(F)c2)NC(=O)CN2CCN(CC(=O)N[C@@H](Cc3ccccc3)C(=O)N(C)c3ccccc3)CC2=O)cc1 [Q-c6, (S)-3-(3,5-difluorophenyl)-N-(4-methoxyphenyl)-N-methyl-2-(2-(4-(2-(((S)-1-(methyl(phenyl)amino)-1-oxo-3-phenylpropan-2-yl)amino)-2-oxoethyl)-2-oxopiperazin-1-yl)acetamido)propenamide]	–	<1.00	–
CN(C(=O)[C@H](Cc1ccccc1)NC(=O)CN1CCNCC1=O)c1ccccc1 [Q-b1, (S)–N-methyl-2-(2-(2-oxopiperazin-1-yl)acetamido)-N,3-diphenyl propanamide]	–	>1.19	CC50 [4]: > 317 µM; SI HIV IIIB [2]: >1.28
COc1ccc(N(C)C(=O)[C@H](Cc2ccccc2)NC(=O)CN2CCN(CC(=O)N[C@@H](Cc3ccccc3)C(=O)N(C)c3ccccc3)C(=O)C2)cc1 [Q-c9, (S)–N-(4-methoxyphenyl)-N-methyl-2-(2-(4-(2-(((S)-1-(methyl(phenyl)amino)-1-oxo-3-phenylpropan-2-yl)amino)-2-oxoethyl)-3-oxopiperazin-1-yl)acetamido)-3-phenylpropanamide]	<1.00	–	SI HIV IIIB [2, 6]: ≤6.45
COc1ccc(N(C)C(=O)[C@H](Cc2ccccc2)NC(=O)CN2CCNCC2=O)cc1 [Q-b2, (S)–N-(4-methoxyphenyl)-N-methyl-2-(2-(2-oxopiperazin-1-yl)acetamido)-3-phenylpropanamide]	>8.94	–	SI HIV IIIB [2, 6]: >3.30
COc1ccc(N(C)C(=O)[C@H](Cc2cc(F)cc(F)c2)NC(=O)CN2CCN(CC(=O)N[C@@H](Cc3ccccc3)C(=O)N(C)c3ccc(OC)cc3)C(=O)C2)cc1 [Q-c2, (S)-3-(3,5-difluorophenyl)-N-(4-methoxyphenyl)-2-(2-(4-(2-(((S)-1-((4-methoxyphenyl)(methyl)amino)-1-oxo-3-phenylpropan-2-yl)amino)-2-oxoethyl)-3-oxopiperazin-1-yl)acetamido)-N-methylpropanamide]	<1.00	–	–
COc1ccc(N(C)C(=O)[C@H](Cc2ccccc2)NC(=O)CN2CCN(S(=O)(=O)c3ccc(N)cc3)CC2=O)cc1 [Compound 11l, reference compound]	–	–	CLint scaled at 3 h, 100 µM [3]: 356 mL/min/kg
CN(C(=O)[C@H](Cc1ccccc1)NC(=O)CN1CCN(CC(=O)N[C@@H](Cc2ccccc2)C(=O)N(C)c2ccccc2)C(=O)C1)c1ccccc1 [Q-c7, (2S,2′S)-2,2'-((2,2'-(2-oxopiperazine-1,4-diyl)bis(acetyl))bis(azanediyl)) bis(N-methyl-N,3-diphenylpropanamide)]	–	<1.00	pEC50 ([1]; Human immunodeficiency virus 2, MT4, read-out: EC50 HIV ROD): < 4.49; SI HIV IIIB [2]: <1.00
COc1ccc(N(C)C(=O)[C@H](Cc2cc(F)cc(F)c2)NC(=O)CN2CCN(CC(=O)N[C@@H](Cc3ccccc3)C(=O)N(C)c3ccccc3)C(=O)C2)cc1 [Q-c8, (S)-3-(3,5-difluorophenyl)-N-(4-methoxyphenyl)-N-methyl-2-(2-(4-(2-(((S)-1-(methyl(phenyl)amino)-1-oxo-3-phenylpropan-2-yl)amino)-2-oxoethyl)-3-oxopiperazin-1-yl)acetamido)propenamide]	–	<1.00	–

— article PMC9115767 (European journal of medicinal chemistry, 2021)
